Patent publication US20250059201A1, “CAMPTOTHECIN COMPOUND AND CONJUGATE THEREOF” (priority 2021, published 2025)

System: BxPC-3 cells
Experiment: Apoptosis-inducing effect
Format: cell-based
Conditions: BxPC-3, 120 hours, over the tested concentrations
Protocol: BxPC-3 cells (purchased from: ATCC) were inoculated into 6-well plates, and then treated with Trop2-ADC-14 (0.020, 0.196, and 1.963 nM), DS-1062 (0.020, 0.196, and 1.963 nM), the mAb in Trop2-ADC-14 (i.e., antibody h23-12) (6.728 nM) and Compound 3 (0.1, 1, and 10 nM) for 120 hours. Next, the cells were harvested, and Annexin-V-FITC and PI were added thereto, and the cells were stained at room temperature for 15 minutes in dark, and finally were re-suspended in the added 300 μl of 1× binding buffer. Apoptosis was detected with a flow cytometer (BD AccuriTMC6 Plus flow cytometer), for which 1×10^4 cells were gated for each group. Experimental data was analyzed using software BD CSampler™ Plus C6.

Question: Which apoptosis-inducing effect does the source give for `CC[C@@]1(O)C(=O)OCc2c1cc1n(c2=O)Cc2c-1nc1ccc(N)c3c1c2C(F)(F)CC3` [Compound 3] here?
Answer: induced apoptosis of BxPC-3 cells in a concentration-dependent manner
